Read-outs that look alike come from different tables or passages of the source.
Columns and labels:
Assay type in all cases: biochemical
human TOR = target: T1, human TOR (Homo sapiens, UniProt P42345); assay: mTOR enzyme assay (DELFIA, His6-S6K substrate); details: read-out: mTOR Kinase Avg. IC50
T1 construct: FLAG

PI3K-gamma = PI3K-gamma (Homo sapiens, UniProt P48736); assay: PI3K-gamma fluorescence polarization assay; details: PI3Kγ Avg. IC50
Procedure, shortened: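 FP displacement read-out: 100 nM GST-GRP1 PH domain plus 5 nM BODIPY-TMR-IP4 added after EDTA stop. Preceding kinase step: 5 ng enzyme, diC8-PI(4,5)P2 2.5 μM, ATP 25 μM, MgCl2 2.5 mM, HEPES 5 mM pH 7, one hour, 25° C.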

PI3K-alpha = PI3K-alpha (Homo sapiens, UniProt P42336); assay: PI3K-alpha fluorescence polarization assay
Sequence of PI3K-alpha (P42336 whole entry, species assumed): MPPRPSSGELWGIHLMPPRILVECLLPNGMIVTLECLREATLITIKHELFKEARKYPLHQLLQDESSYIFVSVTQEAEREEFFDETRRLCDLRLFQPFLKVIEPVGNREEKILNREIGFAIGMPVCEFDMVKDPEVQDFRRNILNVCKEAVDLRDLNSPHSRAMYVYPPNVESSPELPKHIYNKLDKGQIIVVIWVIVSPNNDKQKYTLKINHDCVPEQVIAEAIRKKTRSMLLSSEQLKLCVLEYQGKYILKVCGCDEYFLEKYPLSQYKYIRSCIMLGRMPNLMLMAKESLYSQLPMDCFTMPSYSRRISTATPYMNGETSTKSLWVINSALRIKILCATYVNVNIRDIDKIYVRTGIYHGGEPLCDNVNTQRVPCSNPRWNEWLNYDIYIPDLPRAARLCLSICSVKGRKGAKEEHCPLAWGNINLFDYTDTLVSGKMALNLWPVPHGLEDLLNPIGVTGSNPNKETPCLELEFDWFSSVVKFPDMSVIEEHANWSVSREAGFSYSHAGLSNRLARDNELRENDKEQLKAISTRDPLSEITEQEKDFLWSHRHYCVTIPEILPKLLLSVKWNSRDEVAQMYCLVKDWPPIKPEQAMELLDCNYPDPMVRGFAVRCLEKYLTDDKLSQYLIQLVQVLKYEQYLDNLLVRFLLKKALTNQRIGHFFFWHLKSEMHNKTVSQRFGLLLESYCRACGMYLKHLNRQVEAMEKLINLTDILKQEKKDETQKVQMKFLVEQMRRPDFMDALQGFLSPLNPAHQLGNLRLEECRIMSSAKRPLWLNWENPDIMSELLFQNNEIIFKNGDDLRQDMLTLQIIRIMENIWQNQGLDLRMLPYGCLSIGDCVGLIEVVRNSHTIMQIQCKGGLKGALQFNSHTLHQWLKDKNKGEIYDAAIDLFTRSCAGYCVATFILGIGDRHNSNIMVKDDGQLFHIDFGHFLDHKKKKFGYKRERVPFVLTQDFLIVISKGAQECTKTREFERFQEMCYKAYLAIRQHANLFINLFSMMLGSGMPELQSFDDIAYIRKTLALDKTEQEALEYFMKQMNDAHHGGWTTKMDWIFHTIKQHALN
Sequence of PI3K-alpha (P27986 whole entry partner, species assumed): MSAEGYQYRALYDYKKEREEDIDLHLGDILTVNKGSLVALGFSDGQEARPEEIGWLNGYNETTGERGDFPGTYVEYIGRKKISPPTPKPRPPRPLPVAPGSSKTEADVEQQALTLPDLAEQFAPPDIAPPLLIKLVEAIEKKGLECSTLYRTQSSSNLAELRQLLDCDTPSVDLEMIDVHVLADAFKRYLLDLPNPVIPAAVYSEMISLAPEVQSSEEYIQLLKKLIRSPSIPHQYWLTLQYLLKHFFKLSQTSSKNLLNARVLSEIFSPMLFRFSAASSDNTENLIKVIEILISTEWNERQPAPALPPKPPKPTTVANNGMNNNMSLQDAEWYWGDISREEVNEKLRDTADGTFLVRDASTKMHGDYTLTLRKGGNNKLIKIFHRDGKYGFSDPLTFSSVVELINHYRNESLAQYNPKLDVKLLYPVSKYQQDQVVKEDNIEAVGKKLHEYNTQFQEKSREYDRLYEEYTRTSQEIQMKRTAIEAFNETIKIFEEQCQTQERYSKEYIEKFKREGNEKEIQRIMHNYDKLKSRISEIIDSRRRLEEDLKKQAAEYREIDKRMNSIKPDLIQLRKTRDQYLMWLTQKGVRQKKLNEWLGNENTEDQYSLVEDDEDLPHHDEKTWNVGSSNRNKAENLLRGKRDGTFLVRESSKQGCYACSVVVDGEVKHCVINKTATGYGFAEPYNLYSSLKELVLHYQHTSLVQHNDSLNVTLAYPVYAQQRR

Sequence of PI3K-gamma (P48736 whole entry, species assumed, the tested form may be a part): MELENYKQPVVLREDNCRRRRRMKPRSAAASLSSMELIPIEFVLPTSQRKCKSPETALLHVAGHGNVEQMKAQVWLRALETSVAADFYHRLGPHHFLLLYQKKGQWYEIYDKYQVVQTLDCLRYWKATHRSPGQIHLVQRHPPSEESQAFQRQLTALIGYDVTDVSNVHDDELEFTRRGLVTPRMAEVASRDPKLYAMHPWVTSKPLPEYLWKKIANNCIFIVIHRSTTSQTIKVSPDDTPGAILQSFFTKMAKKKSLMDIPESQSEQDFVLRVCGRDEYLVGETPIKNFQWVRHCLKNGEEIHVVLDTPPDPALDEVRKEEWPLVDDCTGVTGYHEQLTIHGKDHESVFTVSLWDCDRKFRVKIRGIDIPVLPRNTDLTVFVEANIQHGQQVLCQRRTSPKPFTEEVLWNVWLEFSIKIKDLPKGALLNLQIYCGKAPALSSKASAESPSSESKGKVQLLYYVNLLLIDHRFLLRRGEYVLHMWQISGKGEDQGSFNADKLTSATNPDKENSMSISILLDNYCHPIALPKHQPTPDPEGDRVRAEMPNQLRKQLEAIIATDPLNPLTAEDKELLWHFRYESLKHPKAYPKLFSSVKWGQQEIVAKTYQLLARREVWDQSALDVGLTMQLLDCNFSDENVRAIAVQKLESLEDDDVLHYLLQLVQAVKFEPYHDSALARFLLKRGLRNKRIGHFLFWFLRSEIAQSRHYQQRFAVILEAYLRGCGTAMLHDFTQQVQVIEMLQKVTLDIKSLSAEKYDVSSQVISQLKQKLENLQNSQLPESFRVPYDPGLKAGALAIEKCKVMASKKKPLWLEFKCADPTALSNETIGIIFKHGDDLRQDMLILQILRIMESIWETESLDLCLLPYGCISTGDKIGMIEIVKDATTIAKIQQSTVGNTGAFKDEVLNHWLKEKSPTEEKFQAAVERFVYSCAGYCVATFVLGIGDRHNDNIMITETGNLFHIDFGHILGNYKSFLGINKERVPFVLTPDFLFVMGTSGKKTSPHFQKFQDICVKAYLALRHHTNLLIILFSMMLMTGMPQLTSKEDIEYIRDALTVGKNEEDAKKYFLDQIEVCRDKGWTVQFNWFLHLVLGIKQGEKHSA

Row | IC50 (human TOR) [nM] | IC50 (PI3K-gamma) [nM] | IC50 (PI3K-alpha; read-out: PI3Kα Avg. IC50) [nM] | Compound | IC50 (PI3K-alpha; PI3Kα Avg. IC50) [nM]
1 | 700 | > 10000 | 968 | N#CCCCCCn1c(-c2ccccc2)c(C=C2Oc3cc(O)cc(O)c3C2=O)c2ccccc21 [Example 225, 6-{3-[(4,6-dihydroxy-3-oxo-1-benzofuran-2(3H)-ylidene)methyl]-2-phenyl-1H-indol-1-yl}hexanenitrile] | 
2 | > 20000 | > 10000 | > 10000 | COc1ccc2c(c1)SC(=Cc1c[nH]c3ccc(OC)cc13)C2=O [Example 433, 6-Methoxy-2-[(5-methoxy-1H-indol-3-yl)methylene]-1-benzothiophen-3(2H)-one] | 
3 | 1 | 3 | 0.3 | COc1ccc2[nH]c(-c3c(C)nn(C)c3C)c(/C=C3\Oc4ccc(NC(=O)Nc5ccc(C(=O)N6CCC(N(C)C)CC6)cc5)cc4C3=O)c2c1 [Compound 702, 1-(4-{[4-(dimethylamino)piperidin-1-yl]carbonyl}phenyl)-3-[(2Z)-2-{[5-methoxy-2-(1,3,5-trimethyl-1H-pyrazol-4-yl)-1H-indol-3-yl]methylidene}-3-oxo-2,3-dihydro-1-benzofuran-5-yl]urea] | 
4 | 200 | 3280 | 1350 | CC(=O)Nc1cccc(-c2cccc3c2c(/C=C2\Oc4cc(O)cc(O)c4C2=O)cn3C)c1 [Example 388, N-(3-{3-[(Z)-(4,6-Dihydroxy-3-oxo-1-benzofuran-2(3H)-ylidene)methyl]-1-methyl-1H-indol-4-yl}phenyl)acetamide] | 
5 | 1 | 1.9 | 0.33 | COc1cc(F)c2[nH]c(-c3c(C)nn(C)c3C)c(/C=C3\Oc4ccc(NC(=O)Nc5ccc(C(=O)N6CCC(N(C)C)C6)cc5)cc4C3=O)c2c1 (stereo not drawn) [Compound 732, 1-(4-{[3-(dimethylamino)pyrrolidin-1-yl]carbonyl}phenyl)-3-[(2Z)-2-{[7-fluoro-5-methoxy-2-(1,3,5-trimethyl-1H-pyrazol-4-yl)-1H-indol-3-yl]methylidene}-3-oxo-2,3-dihydro-1-benzofuran-5-yl]urea] | 
6 | > 20000 | 4600 | 90.5 | COc1ccc2c(c1)c(/C=C1\Oc3cc(O)c(Cl)cc3C1=O)c(C)n2CCN1CCN(C)CC1 [Example 456, (2Z)-5-Chloro-6-hydroxy-2-({5-methoxy-2-methyl-1-[2-(4-methylpiperazin-1-yl)ethyl]-1H-indol-3-yl}methylene)-1-benzofuran-3(2H)-one] | 
7 | 2800 | 888 | 10.5 | COc1ccc2c(c1)c(/C=C1\Oc3cc(O)ccc3C1=O)c(C(=O)N1CCOCC1)n2CCN1CCN(C)CC1 [Example 412, (2Z)-6-Hydroxy-2-({5-methoxy-1-[2-(4-methylpiperazin-1-yl)ethyl]-2-(morpholin-4-ylcarbonyl)-1H-indol-3-yl}methylene)-1-benzofuran-3(2H)-one] | 
8 | 1 | 1.98 | 0.3 | COc1ccc2[nH]c(-c3c(C)nn(C)c3C)c(/C=C3\Oc4ccc(NC(=O)Nc5ccc(C(=O)N(C)CCN(C)C)cc5)cc4C3=O)c2c1 [Compound 682, N-[2-(dimethylamino)ethyl]-4-({[(2Z)-2-{[5-methoxy-2-(1,3,5-trimethyl-1H-pyrazol-4-yl)-1H-indol-3-yl]methylidene}-3-oxo-2,3-dihydro-1-benzofuran-5-yl]carbamoyl}amino)-N-methylbenzamide] | 
9 | 12000 | > 10000 | 1110 | N#Cc1ccc2[nH]cc(C=C3Oc4cc(O)cc(O)c4C3=O)c2c1 [Example 182, 3-[(4,6-dihydroxy-3-oxo-1-benzofuran-2(3H)-ylidene)methyl]-1H-indole-5-carbonitrile] | 
10 | 5200 | 3850 | 251 | O=C1C(=Cc2c[nH]c3ccc(O)cc23)Oc2cc(O)cc(O)c21 [Example 164, 4,6-dihydroxy-2-[(5-hydroxy-1H-indol-3-yl)methylene]-1-benzofuran-3(2H)-one] | 
11 | 17000 | > 10000 | 1030 | O=C1C(=Cc2c[nH]c3c(O)cccc23)Oc2cc(O)cc(O)c21 [Example 246, 4,6-dihydroxy-2-[(7-hydroxy-1H-indol-3-yl)methylene]-1-benzofuran-3(2H)-one] | 
12 | 1480 | 3070 | 81.5 | CNC(=O)Nc1cc(C)c2c(c1)C(=O)/C(=C/c1c(C)n(CCN3CCN(C)CC3)c3ccc(OC)cc13)O2 [Compound 662, 1-[(2Z)-2-({5-methoxy-2-methyl-1-[2-(4-methylpiperazin-1-yl)ethyl]-1H-indol-3-yl}methylidene)-7-methyl-3-oxo-2,3-dihydro-1-benzofuran-5-yl]-3-methylurea] | 
13 | 48 | 6.25 | 1.45 | COc1cc(F)c2[nH]c(-c3c(C)nn(C)c3C)c(/C=C3\Oc4ccc(NC(=O)NCCN5CCCC5)cc4C3=O)c2c1 [Compound 727, 1-[(2Z)-2-{[7-fluoro-5-methoxy-2-(1,3,5-trimethyl-1H-pyrazol-4-yl)-1H-indol-3-yl]methylidene}-3-oxo-2,3-dihydro-1-benzofuran-5-yl]-3-(2-pyrrolidin-1-ylethyl)urea] | 
14 | 1800 | 5120 | 2860 | CN1CCN(CCn2c(-c3ccccc3)c(C=C3Oc4cc(O)cc(O)c4C3=O)c3ccccc32)CC1 [Example 159, 4,6-dihydroxy-2-({1-[2-(4-methylpiperazin-1-yl)ethyl]-2-phenyl-1H-indol-3-yl}methylene)-1-benzofuran-3(2H)-one] | 
15 | 2 | 1.75 | 0.4 | COc1ccc2[nH]c(-c3c(C)nn(C)c3C)c(/C=C3\Oc4ccc(NC(=O)Nc5ccc(C(=O)N6CCS(=O)(=O)CC6)cc5)cc4C3=O)c2c1 [Compound 720, 1-{4-[(1,1-dioxidothiomorpholin-4-yl)carbonyl]phenyl}-3-[(2Z)-2-{[5-methoxy-2-(1,3,5-trimethyl-1H-pyrazol-4-yl)-1H-indol-3-yl]methylidene}-3-oxo-2,3-dihydro-1-benzofuran-5-yl]urea] | 
16 | > 20000 | 3770 | 384 | Cc1ccc2[nH]cc(/C=C3\Oc4c(ccc(O)c4O)C3=O)c2c1 [Example 65, (2Z)-6,7-dihydroxy-2-[(5-methyl-1H-indol-3-yl)methylene]-1-benzofuran-3(2H)-one] | 
17 | 190 | 1480 | 674 | O=C1C(=Cc2c(-c3cccc(F)c3)[nH]c3ccccc23)Oc2cc(O)cc(O)c21 [Example 210, 2-{[2-(3-fluorophenyl)-1H-indol-3-yl]methylene}-4,6-dihydroxy-1-benzofuran-3(2H)-one] | 
18 | > 20000 | 8660 | 5040 | CN1CCN(CCn2cc(/C=C3\Oc4cc(O)cc(O)c4C3=O)c3c(-c4ccc(C(N)=O)cc4)cccc32)CC1 [Example 425, 4-{3-[(Z)-(4,6-Dihydroxy-3-oxo-1-benzofuran-2(3H)-ylidene)methyl]-1-[2-(4-methylpiperazin-1-yl)ethyl]-1H-indol-4-yl}benzamide] | 
19 | 220 | 3070 | 1090 | Cn1c(-c2ccc(F)cc2)c(C=C2Oc3cc(O)cc(O)c3C2=O)c2ccccc21 [Example 200, 2-{[2-(4-fluorophenyl)-1-methyl-1H-indol-3-yl]methylene}-4,6-dihydroxy-1-benzofuran-3(2H)-one] | 
20 | 120 | 8540 | 2120 | Cn1c(-c2ccncc2)c(C=C2Oc3cc(O)cc(O)c3C2=O)c2ccccc21 [Example 190, 4,6-dihydroxy-2-[(1-methyl-2-pyridin-4-y1-1H-indol-3-yl)methylene]-1-benzofuran-3(2H)-one] | 
21 | > 20000 | 475 | 29.5 | COc1ccc2c(c1)c(/C=C1\Oc3cc(O)cc(F)c3C1=O)c(C)n2CCCN(C)C [Example 465, (2Z)-2-({1-[3-(Dimethylamino)propyl]-5-methoxy-2-methyl-1H-indol-3-yl}methylene)-4-fluoro-6-hydroxy-1-benzofuran-3(2H)-one] | 
22 | 19 | 16.5 | 2.1 | CNC(=O)Nc1ccc2c(c1)C(=O)/C(=C/c1c(-c3c(C)nn(C)c3C)n(CCCC#N)c3ccc(OC)cc13)O2 [Compound 634, 1-[(2Z)-2-{[1-(3-cyanopropyl)-5-methoxy-2-(1,3,5-trimethyl-1H-pyrazol-4-yl)-1H-indol-3-yl]methylene}-3-oxo-2,3-dihydro-1-benzofuran-5-yl]-3-methylurea] | 
23 | > 20000 | > 11000 | 166 | COc1ccc2c(c1)c(/C=C1\Oc3c(ccc(O)c3F)C1=O)c(C)n2CCCN(C)C [Example 449, (2Z)-2-({1-[3-(Dimethylamino)propyl]-5-methoxy-2-methyl-1H-indol-3-yl}methylene)-7-fluoro-6-hydroxy-1-benzofuran-3(2H)-one] | 
24 | 710 | 42.3 | 5.73 | CCn1c(C)c(/C=C2\Oc3ccc(NC(=O)Nc4ccc(CCCCN(C)C)cc4)cc3C2=O)c2cc(OC)ccc21 [Compound 663, 1-{4-[4-(dimethylamino)butyl]phenyl}-3-{(2Z)-2-[(1-ethyl-5-methoxy-2-methyl-1H-indol-3-yl)methylidene]-3-oxo-2,3-dihydro-1-benzofuran-5-yl}urea] | 

Row | Compound | IC50 (human TOR) [nM] | IC50 (PI3K-gamma) [nM] | IC50 (PI3K-alpha; read-out: PI3Kα Avg. IC50) [nM] | IC50 (PI3K-alpha; PI3Kα Avg. IC50) [nM]
25 | O=C1/C(=C/c2c(-c3ccc(Cl)cc3)[nH]c3ccccc23)Oc2cc(O)cc(O)c21 [Example 44, (2Z)-2-{[2-(4-chlorophenyl)-1H-indol-3-yl]methylene}-4,6-dihydroxy-1-benzofuran-3(2H)-one] | 190 | 1460 |  | 542

From patent publication US20090311217A1, “3-SUBSTITUTED-1H-INDOLE COMPOUNDS, THEIR USE AS MTOR KINASE AND PI3 KINASE INHIBITORS, AND THEIR SYNTHESES” (priority 2008, published 2009)
